Where a SMILES comes first, the peptide text is derived from it. [ ]: non-standard residue; d: D form. dPhe(F5) = N[C@H](Cc1c(F)c(F)c(F)c(F)c1F)C(=O)O
What was measured:
sperm [1] = experiment: acrosome reaction, analogs alone or in the presence of GRP (sperm species not stated); format: cell-based; conditions: for % Acrosome Reacted, Analog + GRP: analog 50 nM + GRP 2 nM; for % Acrosome Reacted, Analog: analog alone, final concentration 50 nM, blank control 6.000 ± .707
Protocol: (§1) The acrosome reaction, which is necessary for sperm to fertilize the egg, was induced by the following methods.
(§2) For monkeys, sperm was collected, washed twice in balanced salts, resuspended in lactate/bicarbonate and dibutyryl cAMP, and then incubated for 60 minutes. […] See Wolf, D. P. et al. Mol. Reprod. Dev. 27:261-280 (1990); Lanzendorf, S. E. et al. Mol. Reprod. Dev. 25:61-66 (1990); and Wolf D. P. et al. Biol. Reprod. 41:335-346 (1989). All of these three publications are hereby incorporated by reference.
(§3) To measure the effects of bombesin on the acrosome reaction, capacitation was conducted in the presence or absence of bombesin. After incubation, samples of sperm were removed to determine the percentage of sperm which had undergone the acrosome reaction as measured with an acrosome specific monoclonal antibody and FITC fluorescence [see Wolf, D. P. Am. J. Reprod. Immunol. 20:106-113 (1989), which is hereby incorporated by reference].
[…] bombesin analogs, BIM 26136, BIM 26187, BIM 26189, BIM 26224, BIM 26226, BIM 26244, and BIM 26028, were used to test their effect on the acrosome reaction, either alone or in the presence GRP, in a manner described above.

monkey sperm = experiment: acrosome reaction in monkey sperm (acrosome specific monoclonal antibody, FITC fluorescence); format: cell-based, monkeys (rhesus); conditions: for stimulation of the spontaneous acrosome reaction: monkeys (rhesus)
Protocol: as §1, §2, §3

new GRP receptor = experiment: response of new GRP receptor in transfected cells and Xenopus oocytes; format: cell-based, rat
From the text: A new GRP receptor, which is expressed in very high levels in rat sperm, has recently been cloned. cDNA encoding this receptor was used to determine if this new GRP receptor is expressed in primate sperm.

human sperm = experiment: acrosome reaction in human sperm; format: cell-based; conditions: for stimulation of the spontaneous acrosome reaction: humans
Protocol: as §1, §3

sperm [2] = conditions: high doses, 1 μg/ml; cited from earlier work

For “H-D-Nal-Gln-Trp-Ala-Val-Gly-His-Leu-.psi.(CH2 -NH)-Phe-NH2 [BIM 26136]”, the “rank in inducing the acrosome reaction among the analogs tested” value (sperm [1]; Table 1, 50 nM) was “most potent”, the “% Acrosome Reacted, Analog + GRP” value (sperm [1]) was 10.000 ± 1.225% and the “% Acrosome Reacted, Analog” value (sperm [1]) was 11.000 ± .408%.
In the case of `COC(=O)[C@H](CC(C)C)NC(=O)[C@H](Cc1c[nH]cn1)NC(=O)[C@@H](C)NC(=O)[C@@H](NC(=O)[C@H](C)NC(=O)[C@H](Cc1c[nH]c2ccccc12)NC(=O)[C@H](CCC(N)=O)NC(=O)[C@H](N)Cc1c(F)c(F)c(F)c(F)c1F)C(C)C` [BIM 26226, H-D-F5 -Phe-Gln-Trp-Ala-Val-D-Ala-His-Leu-OCH3] (H-[dPhe(F5)]QWAV[dA]HL-OMe), the “% Acrosome Reacted, Analog + GRP” value (sperm [1]) was 12.000 ± .707% and the “% Acrosome Reacted, Analog” value (sperm [1]) was 9.000 ± 1.780%.
In the case of “H-Ala-Pro-Val-Ser-Val-Gly-Gly-Gly-Thr-Val-Leu-Ala-Lys-Met-Tyr-Pro-Arg-Gly-Asn-His-Trp-Ala-Val-Gly-His-Leu-Met-NH2 (H-APVSVGGGTVLAKMYPRGNHWAVGHLM-NH2) [GRP]”, the “stimulation of the spontaneous acrosome reaction” value (from here on “stimulation”) (monkey sperm) was “stimulate”, the “reaction of the new receptor to the peptide” value (new GRP receptor) was “reacted only weakly” and the “stimulation” value (human sperm) was “stimulate”. For the same compound, the “concentration at which active in stimulating the acrosome reaction” value (sperm [1]) was 1 nM and the “% Acrosome Reacted, GRP without analog (blank control line, GRP column)” value (sperm [1]; GRP final concentration 2 nM, no analog) was 18.000 ± 3.629%.
For “H-D-Phe-Gln-Trp-Ala-Val-Gly-His-Leu-Cpa-NH2 [BIM 26169]”, the “% Acrosome Reacted, Analog + GRP” value (sperm [1]) was 6.000 ± .408% and the “% Acrosome Reacted, Analog” value (sperm [1]) was 10.000 ± .913%.
In the case of `CC(=O)[C@H]1CC[C@H]2[C@@H]3CCC4=CC(=O)CC[C@]4(C)[C@H]3CC[C@]12C` [progesterone], the “induction of the acrosome reaction” value (sperm [2]) is listed as “induce the acrosome reaction”.
In the case of Neuromedin B, the “reaction of the new receptor to the peptide” value (new GRP receptor) was “reacted only weakly”.
For `CSCC[C@H](NC(=O)[C@H](CC(C)C)NC(=O)[C@H](Cc1cnc[nH]1)NC(=O)CNC(=O)[C@@H](NC(=O)[C@H](C)NC(=O)[C@H](Cc1c[nH]c2ccccc12)NC(=O)[C@H](CCC(N)=O)NC(=O)[C@H](CC(N)=O)NC(=O)CNC(=O)[C@H](CC(C)C)NC(=O)[C@H](CCCN=C(N)N)NC(=O)[C@H](CCC(N)=O)NC(=O)[C@@H]1CCC(=O)N1)C(C)C)C(N)=O` [bombesin, H-pGlu-Gln-Arg-Leu-Gly-Asn-Gln-Trp-Ala-Val-Gly-His-Leu-Met-NH2], the “increase in the acrosome reaction” value (monkey sperm; monkey sperm, concentrations as low as 5 nM bombesin, FIG. 2) was 2 fold, the “stimulation” value (monkey sperm) was “stimulate” and the “increase in the acrosome reaction” value (human sperm; human sperm, concentrations as low as 5 nM bombesin, FIG. 2) was 2 fold. The “stimulation” value (human sperm) was “stimulate”.
With `CCCC[C@H](NC(=O)[C@H](Cc1ccccc1)NC(=O)[C@H](Cc1c[nH]cn1)NC(=O)CNC(=O)[C@@H](NC(=O)[C@H](C)NC(=O)[C@H](Cc1c[nH]c2ccccc12)NC(=O)[C@H](CCC(N)=O)NC(=O)[C@H](N)Cc1ccccc1)C(C)C)C(N)=O` [BIM 26224, H-D-Phe-Gln-Trp-Ala-Val-Gly-His-Phe-Nle-NH2] the “% Acrosome Reacted, Analog + GRP” value (sperm [1]) was 6.000 ± 1.000% and the “% Acrosome Reacted, Analog” value (sperm [1]) was 9.000 ± 1.581%.
For `CC(C)C[C@H](NC(=O)[C@H](CC(C)C)NC(=O)[C@H](Cc1c[nH]cn1)NC(=O)CNC(=O)[C@@H](NC(=O)[C@H](C)NC(=O)[C@H](Cc1c[nH]c2ccccc12)NC(=O)[C@H](CCC(N)=O)NC(=O)[C@H](N)Cc1ccccc1)C(C)C)C(N)=O` [BIM 26137, H-D-Phe-Gln-Trp-Ala-Val-Gly-His-Leu-Leu-NH2], the “% Acrosome Reacted, Analog + GRP” value (sperm [1]) was 7.000 ± .707% and the “% Acrosome Reacted, Analog” value (sperm [1]) was 7.000 ± .707%.
